These molecules were tested against T1, Xanthine oxidase (XOD) (Bos taurus, UniProt P80457) (assay: immobilized enzyme inhibition at […], hypoxanthine substrate, HPLC detection of uric acid).
T1 construct: gene XDH; commercial XOD immobilized on polydopamine-modified hollow fiber (XOD@PDA@HF)
Assay type: biochemical

T1 sequence (P80457 2-1332): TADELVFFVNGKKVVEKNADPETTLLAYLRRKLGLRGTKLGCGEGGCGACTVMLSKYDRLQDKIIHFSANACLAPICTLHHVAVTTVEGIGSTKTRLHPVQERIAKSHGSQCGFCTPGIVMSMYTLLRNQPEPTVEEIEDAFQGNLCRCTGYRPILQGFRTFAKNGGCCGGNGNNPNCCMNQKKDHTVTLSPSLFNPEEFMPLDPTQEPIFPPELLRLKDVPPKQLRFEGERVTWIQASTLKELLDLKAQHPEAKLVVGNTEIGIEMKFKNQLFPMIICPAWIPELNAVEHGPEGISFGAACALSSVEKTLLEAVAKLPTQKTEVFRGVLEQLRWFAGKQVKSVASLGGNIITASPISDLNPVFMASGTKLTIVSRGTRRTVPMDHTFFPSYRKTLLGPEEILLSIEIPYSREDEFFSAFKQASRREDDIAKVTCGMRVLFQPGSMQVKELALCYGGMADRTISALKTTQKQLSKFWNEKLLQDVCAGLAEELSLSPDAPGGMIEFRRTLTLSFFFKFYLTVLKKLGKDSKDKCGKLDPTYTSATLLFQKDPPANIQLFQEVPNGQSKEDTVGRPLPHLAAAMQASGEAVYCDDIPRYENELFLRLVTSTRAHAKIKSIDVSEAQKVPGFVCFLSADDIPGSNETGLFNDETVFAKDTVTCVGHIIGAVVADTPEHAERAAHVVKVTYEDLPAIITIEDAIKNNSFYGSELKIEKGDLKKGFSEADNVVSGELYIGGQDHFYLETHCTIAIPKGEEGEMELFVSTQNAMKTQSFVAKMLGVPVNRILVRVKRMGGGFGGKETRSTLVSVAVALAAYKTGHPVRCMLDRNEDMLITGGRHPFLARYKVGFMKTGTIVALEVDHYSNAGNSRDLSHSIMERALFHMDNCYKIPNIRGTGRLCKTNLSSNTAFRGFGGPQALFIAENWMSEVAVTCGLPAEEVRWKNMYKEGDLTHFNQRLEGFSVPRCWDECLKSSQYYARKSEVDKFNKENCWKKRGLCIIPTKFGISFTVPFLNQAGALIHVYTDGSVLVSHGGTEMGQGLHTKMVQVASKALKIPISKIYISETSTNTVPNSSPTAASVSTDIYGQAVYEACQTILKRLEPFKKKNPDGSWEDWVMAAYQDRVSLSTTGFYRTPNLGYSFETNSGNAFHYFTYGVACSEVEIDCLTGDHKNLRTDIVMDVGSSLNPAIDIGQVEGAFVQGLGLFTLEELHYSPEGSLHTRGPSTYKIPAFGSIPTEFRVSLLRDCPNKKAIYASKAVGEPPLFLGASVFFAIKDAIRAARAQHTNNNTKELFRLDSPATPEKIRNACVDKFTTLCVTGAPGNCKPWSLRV

Compound | inhibition at 1000 µM
O=c1cc(-c2ccc(O)cc2)oc2cc(O)cc(O)c12 [Apigenin] | 80.98 ± 0.64%
Oc1cc(O)c2c(c1)O[C@H](c1cc(O)c(O)c(O)c1)[C@H](O)C2 [Epigallocatechin] | 54.92 ± 0.41%
O=c1c(-c2ccc(O)cc2)coc2c([C@@H]3O[C@H](CO)[C@@H](O)[C@H](O)[C@H]3O)c(O)ccc12 [Puerarin] | 61.1 ± 6.26%
O=c1c(O)c(-c2ccc(O)c(O)c2)oc2cc(O)cc(O)c12 [Quercetin] | 79.9 ± 3.5%

Source: paper PMC8271864, “Evaluation of Enzyme Inhibitory Activity of Flavonoids by Polydopamine-Modified Hollow Fiber-Immobilized Xanthine Oxidase” (Molecules, 2021)
